Source: the supplement of paper PMC11061612

What was measured:
Experiment in all cases: Bliss excess, mean over the matrix (fraction); higher = more synergy
[1] = system: ALL-PO (B-Lymphoblastic Leukemia)
Procedure, shortened: (§1)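 After 24 hours at 37°C and 5% CO2 in 1536-well plates, cells in DMEM/F12 or RPMI plus 10% FBS received two-drug dose matrices for 72 hours. Viability came from CellTiter-Glo 2.0 luminescence and was scaled as inhibition, anchored at 0 by vehicle wells and at 1 by blank wells. Combination Emax is taken as the second-highest inhibition in the matrix, and Bliss excess as the observed combination effect less EA + EB − EA·EB, with EA and EB the single-agent effects.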

[2] = system: BE2-M17 (Neuroblastoma)
Procedure, shortened: as §1

[3] = system: BPH-1 (Non-Cancerous)
Procedure, shortened: as §1

[4] = system: FTC-133 (Thyroid Gland Carcinoma)
Procedure, shortened: as §1

[5] = system: HH (T-Cell Non-Hodgkin's Lymphoma)
Procedure, shortened: as §1

[6] = system: HeLa (Cervical Carcinoma)
Procedure, shortened: as §1

[7] = system: Hs-746T (Gastric Carcinoma)
Procedure, shortened: as §1

[8] = system: HuCCT1 (Biliary Tract Carcinoma)
Procedure, shortened: as §1

[9] = system: HuH-7 (Hepatocellular Carcinoma)
Procedure, shortened: as §1

[10] = system: KMRC-20 (Kidney Carcinoma)
Procedure, shortened: as §1

[11] = system: L-428 (Hodgkin's Lymphoma)
Procedure, shortened: as §1

[12] = system: LCLC-97TM1 (Non-Small Cell Lung Carcinoma)
Procedure, shortened: as §1

[13] = system: LNZTA3WT4 (Low Grade Glioma)
Procedure, shortened: as §1

[14] = system: LOXIMVI (Melanoma)
Procedure, shortened: as §1

[15] = system: NCI-H2722 (Mesothelioma)
Procedure, shortened: as §1

[16] = system: NUGC-4 (Gastric Carcinoma)
Procedure, shortened: as §1

[17] = system: OVCAR-5 (Ovarian Carcinoma)
Procedure, shortened: as §1

[18] = system: SAS (Oral Cavity Carcinoma)
Procedure, shortened: as §1

[19] = system: TGBC1TKB (Biliary Tract Carcinoma)
Procedure, shortened: as §1

[20] = system: WSU-NHL (B-Cell Non-Hodgkin's Lymphoma)
Procedure, shortened: as §1

C[C@@H]1COCCN1c1cc(C2([S@](C)(=N)=O)CC2)nc(-c2ccnc3[nH]ccc23)n1 [AZD6738] + O=C(c1cc(Cc2n[nH]c(=O)c3ccccc23)ccc1F)N1CCN(C(=O)C2CC2)CC1 [Olaparib] (first compound max 10 µM, 7x7, partner max 10 µM)
Bliss excess [1]: 0.018
Bliss excess [2]: -0.0176
Bliss excess [3]: 0.0283
Bliss excess [4]: -0.0401
Bliss excess [5]: -0.0082
Bliss excess [6]: 0.0497
Bliss excess [7]: 0.0101
Bliss excess [8]: -0.0264
Bliss excess [9]: 0.0569
Bliss excess [10]: -0.0101
Bliss excess [11]: 0.0227
Bliss excess [12]: -0.0539
Bliss excess [13]: -0.0197
Bliss excess [14]: -0.0956
Bliss excess [15]: 0.0087
Bliss excess [16]: -0.0163
Bliss excess [17]: -0.0994
Bliss excess [18]: -0.0361
Bliss excess [19]: -0.0578
Bliss excess [20]: -0.0379

NC1(C(=O)N[C@@H](CCO)c2ccc(Cl)cc2)CCN(c2ncnc3[nH]ccc23)CC1 [Capivasertib] + CC(=O)c1c(C)c2cnc(Nc3ccc(N4CCNCC4)cn3)nc2n(C2CCCC2)c1=O [Palbociclib] (first compound max 10 µM, 7x7, partner max 10 µM)
Bliss excess [1]: -0.0252
Bliss excess [2]: 0.0059
Bliss excess [3]: -0.0574
Bliss excess [4]: -0.011
Bliss excess [5]: -0.0305
Bliss excess [6]: -0.0661
Bliss excess [7]: -0.0322
Bliss excess [8]: -0.0067
Bliss excess [9]: 0.0124
Bliss excess [10]: -0.0377
Bliss excess [11]: -0.0092
Bliss excess [12]: 0.0152
Bliss excess [13]: 0.0103
Bliss excess [14]: 0.0391
Bliss excess [15]: -0.0436
Bliss excess [16]: -0.0345
Bliss excess [17]: -0.0396
Bliss excess [18]: -0.0211
Bliss excess [19]: 0.0157
Bliss excess [20]: -0.0671

NC1(C(=O)N[C@@H](CCO)c2ccc(Cl)cc2)CCN(c2ncnc3[nH]ccc23)CC1 [Capivasertib] + CC(C)n1c(=O)n(C)c2cnc3cc(F)c(-c4ccc(OCCCN5CCCCC5)nc4)cc3c21 [AZD1390] (first compound max 10 µM, 7x7, partner max 0.3 µM)
Bliss excess [1]: -0.0382
Bliss excess [2]: -0.115
Bliss excess [3]: -0.0842
Bliss excess [4]: -0.0486
Bliss excess [5]: -0.0327
Bliss excess [6]: -0.0537
Bliss excess [7]: -0.0445
Bliss excess [8]: -0.0447
Bliss excess [9]: -0.045
Bliss excess [10]: -0.0651
Bliss excess [11]: -0.0352
Bliss excess [12]: -0.0278
Bliss excess [13]: -0.0189
Bliss excess [14]: -0.0063
Bliss excess [15]: -0.0512
Bliss excess [16]: -0.0524
Bliss excess [17]: -0.0829
Bliss excess [18]: -0.036
Bliss excess [19]: 0.004
Bliss excess [20]: -0.0418

NC1(C(=O)N[C@@H](CCO)c2ccc(Cl)cc2)CCN(c2ncnc3[nH]ccc23)CC1 [Capivasertib] + CCN(CCO)CCCOc1ccc2c(Nc3cc(CC(=O)Nc4cccc(F)c4)[nH]n3)ncnc2c1 [AZD2811] (first compound max 10 µM, 7x7, partner max 1 µM)
Bliss excess [1]: -0.0254
Bliss excess [2]: -0.043
Bliss excess [3]: 0.0118
Bliss excess [4]: 0.0005
Bliss excess [5]: -0.0221
Bliss excess [6]: -0.0411
Bliss excess [7]: -0.0265
Bliss excess [8]: 0.0051
Bliss excess [9]: -0.0168
Bliss excess [10]: -0.015
Bliss excess [11]: 0.0098
Bliss excess [12]: 0.0429
Bliss excess [13]: -0.0551
Bliss excess [14]: -0.0072
Bliss excess [15]: -0.0044
Bliss excess [16]: -0.0543
Bliss excess [17]: -0.0223
Bliss excess [18]: -0.0264
Bliss excess [19]: -0.0275
Bliss excess [20]: -0.0697

NC1(C(=O)N[C@@H](CCO)c2ccc(Cl)cc2)CCN(c2ncnc3[nH]ccc23)CC1 [Capivasertib] + COc1nnc2ccc(N3CCC(c4ccc(OCCN5CCN(C)C(=O)[C@H]5C)cc4)CC3)nn12 [AZD5153] (first compound max 10 µM, 7x7, partner max 1 µM)
Bliss excess [1]: -0.0116
Bliss excess [2]: 0.0666
Bliss excess [3]: -0.0542
Bliss excess [4]: 0.0923
Bliss excess [5]: 0.0022
Bliss excess [6]: -0.0021
Bliss excess [7]: 0.0169
Bliss excess [8]: 0.0113
Bliss excess [9]: -0.0061
Bliss excess [10]: 0.0004
Bliss excess [11]: -0.0239
Bliss excess [12]: 0.0079
Bliss excess [13]: 0.0305
Bliss excess [14]: 0.0133
Bliss excess [15]: 0.0016
Bliss excess [16]: -0.0333
Bliss excess [17]: 0.0138
Bliss excess [18]: -0.0524
Bliss excess [19]: 0.02
Bliss excess [20]: -0.0923

NC1(C(=O)N[C@@H](CCO)c2ccc(Cl)cc2)CCN(c2ncnc3[nH]ccc23)CC1 [Capivasertib] + C[C@@H]1COCCN1C2=NC(=NC(=C2)C3(CC3)[S@](=N)(=O)C)C4=C5C=CNC5=NC=C4 [AZD6738] (first compound max 10 µM, 7x7, partner max 10 µM)
Bliss excess [1]: 0.0103
Bliss excess [2]: -0.0034
Bliss excess [3]: -0.0497
Bliss excess [4]: -0.042
Bliss excess [5]: -0.0396
Bliss excess [6]: -0.0926
Bliss excess [7]: -0.0747
Bliss excess [8]: -0.0335
Bliss excess [9]: -0.0228
Bliss excess [10]: -0.128
Bliss excess [11]: -0.0004
Bliss excess [12]: -0.0607
Bliss excess [13]: -0.027
Bliss excess [14]: -0.0014
Bliss excess [15]: -0.0119
Bliss excess [16]: -0.0488
Bliss excess [17]: -0.0357
Bliss excess [18]: -0.0308
Bliss excess [19]: -0.005
Bliss excess [20]: -0.05

NC1(C(=O)N[C@@H](CCO)c2ccc(Cl)cc2)CCN(c2ncnc3[nH]ccc23)CC1 [Capivasertib] + Cn1cnc2c(F)c(Nc3ccc(Br)cc3Cl)c(C(=O)NOCCO)cc21 [Selumetinib] (first compound max 10 µM, 7x7, partner max 10 µM)
Bliss excess [1]: 0.117
Bliss excess [2]: 0.0158
Bliss excess [3]: -0.0162
Bliss excess [4]: 0.0156
Bliss excess [5]: -0.0626
Bliss excess [6]: 0.0032
Bliss excess [7]: 0.0736
Bliss excess [8]: 0.01
Bliss excess [9]: -0.0428
Bliss excess [10]: -0.133
Bliss excess [11]: -0.0127
Bliss excess [12]: 0.0752
Bliss excess [13]: -0.0292
Bliss excess [14]: 0.107
Bliss excess [15]: 0.0009
Bliss excess [16]: 0.0363
Bliss excess [17]: -0.028
Bliss excess [18]: 0.0089
Bliss excess [19]: 0.0729
Bliss excess [20]: 0.0544
